Structures are written as SMILES.

For the assay, the system named is MCF-7 cells. Kind of assay: High dose E2 treatment of MCF-7 cells (apoptosis). The assay is classed as cell-based, human. The conditions noted are these: high dose E2 treatment of MCF-7 cells.

For the compound `C[C@]12CC[C@@H]3c4ccc(O)cc4CC[C@H]3[C@@H]1CC[C@@H]2O` [E2, 17B-estridiol], the “Effect of high dose E2 on cell fate (apoptosis)” value was “committed to apoptotic pathways”.
